The target of the assay is NT647-MEK1 (MEK1 residues 37–383) (Homo sapiens, UniProt Q02750). In words: Automated microscale thermophoresis. Type of assay: binding. On the technique in general: Microscale thermophoresis detects binding through changes in fluorescence in a small temperature gradient.
Chain of NT647-MEK1 (MEK1 residues 37–383) (Q02750 37-383): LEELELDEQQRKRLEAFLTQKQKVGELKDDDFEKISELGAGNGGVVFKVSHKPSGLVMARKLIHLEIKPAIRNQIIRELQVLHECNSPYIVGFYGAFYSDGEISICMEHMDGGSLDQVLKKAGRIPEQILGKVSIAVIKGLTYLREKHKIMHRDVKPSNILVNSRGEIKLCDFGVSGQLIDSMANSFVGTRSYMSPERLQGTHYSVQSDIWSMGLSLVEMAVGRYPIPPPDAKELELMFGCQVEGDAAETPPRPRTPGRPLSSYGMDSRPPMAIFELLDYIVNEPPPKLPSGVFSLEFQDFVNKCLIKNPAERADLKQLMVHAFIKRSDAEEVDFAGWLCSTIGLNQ

Broadly, the Kd is a measure of binding affinity in units of concentration. Regarding `Nc1ncnc2c1ncn2[C@@H]1O[C@H](COP(=O)(O)OP(=O)(O)OP(=O)(O)O)[C@@H](O)[C@H]1O` [ATP, adenosine triphosphate], the Kd reads like this: (Kd of ATP in the absence of MgCl2, without MgCl2) 140 µM; (Kd of ATP in the presence of MgCl2, MST buffer with 10 mM MgCl2) 4.5 µM.

Values taken from PMC4800460 (Journal of Biomolecular Screening, 2015).
